Literature values in patent publication US20220235022A1 (priority 2019, published 2022).

Tests used:
[1] = compared with Δ^9-THC; reported
[2] = conjugate acid of the base, approximate values

CCCCCc1cc(O)c2c(c1)OC(C)(C)[C@@H]1CC=C(C)C[C@@H]21 [Δ^8-THC, Δ^8-tetrahydrocannabinol]
less potent in terms of psychoactivity [1]: approximately 50%

Cc1cccc(C)n1 [2,6-dimethylpyridine]
pKa (conjugate acid in DMSO) [2]: 4.46
